In US20220089575A1, “FARNESOID X RECEPTOR AGONISTS AND USES THEREOF” (Metacrine, Inc., priority 2017, published 2022):

What follows are compounds tested against T1, hFXR (Homo sapiens, UniProt Q96RI1) (assay: In Vitro FXR Assay (TK): TK-ECRE-luc reporter in transfected CV-1 cells). Details: 18 hrs, luminescence, maximum efficacy of <25% of the Fexarmine control classified as '+'.
T1 construct: expressed in transfected cells; host or cells: CV-1 cells
T1 sequence (Q96RI1 1-486): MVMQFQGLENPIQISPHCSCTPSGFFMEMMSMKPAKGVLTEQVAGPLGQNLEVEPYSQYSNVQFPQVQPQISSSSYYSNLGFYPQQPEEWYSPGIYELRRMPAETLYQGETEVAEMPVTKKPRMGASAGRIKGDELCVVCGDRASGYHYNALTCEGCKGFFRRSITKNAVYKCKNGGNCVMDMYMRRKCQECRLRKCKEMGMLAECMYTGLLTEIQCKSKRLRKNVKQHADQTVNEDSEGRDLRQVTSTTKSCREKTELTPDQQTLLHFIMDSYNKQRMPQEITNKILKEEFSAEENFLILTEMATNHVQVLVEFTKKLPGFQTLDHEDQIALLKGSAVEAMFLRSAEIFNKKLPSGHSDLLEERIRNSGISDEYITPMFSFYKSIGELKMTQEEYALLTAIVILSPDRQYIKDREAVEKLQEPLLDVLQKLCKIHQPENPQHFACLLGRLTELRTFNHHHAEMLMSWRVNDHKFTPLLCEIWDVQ
T1 sequence (P19793 1-462 partner): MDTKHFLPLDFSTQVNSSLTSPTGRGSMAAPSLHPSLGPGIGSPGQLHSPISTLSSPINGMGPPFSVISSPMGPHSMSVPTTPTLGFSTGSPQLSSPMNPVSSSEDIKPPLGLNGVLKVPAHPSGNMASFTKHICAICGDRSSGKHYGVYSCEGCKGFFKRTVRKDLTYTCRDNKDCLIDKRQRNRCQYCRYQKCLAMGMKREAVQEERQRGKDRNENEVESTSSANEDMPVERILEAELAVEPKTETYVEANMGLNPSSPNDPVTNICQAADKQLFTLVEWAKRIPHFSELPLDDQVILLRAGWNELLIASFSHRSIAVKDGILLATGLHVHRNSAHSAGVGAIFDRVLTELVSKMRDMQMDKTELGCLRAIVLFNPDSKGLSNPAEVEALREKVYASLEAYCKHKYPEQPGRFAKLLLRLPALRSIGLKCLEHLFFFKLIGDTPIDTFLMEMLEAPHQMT
Type: cell-based
Method in brief: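 Luciferase read-out after 18 h compound exposure of CV-1 cells carrying transfected hFXR plus hRXR expression plasmids, TK-ECRE-luc reporter and pCMX-YFP. Cells cultured in charcoal-stripped FBS before transfection; compounds serially diluted in DMSO.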

`COCCNC(=O)O[C@H]1CC[C@H](C(=O)N(C[C@H]2CC[C@H](c3ccc(OC)c(C#N)c3)CC2)c2cc(-c3cnn(C(C)C)c3)ccn2)CC1` [Compound 6.34, trans-4-(((trans-4-(3-Cyano-4-methoxyphenyl)cyclohexyl)methyl)(4-(1-isopropyl-1H-pyrazol-4-yl)pyridin-2-yl)carbamoyl)cyclohexyl (2-methoxyethyl)carbamate] and `COc1ccc([C@H]2CC[C@H](CN(c3cccc(-c4cnn(C(C)C)c4)c3)C(=O)[C@H]3CC[C@H](CC(=O)O)CC3)CC2)cc1C` [Compound 20.14, 2-(trans-4-((3-(1-Isopropyl-1H-pyrazol-4-yl)phenyl)((trans-4-(4-methoxy-3-methylphenyl)cyclohexyl)methyl)carbamoyl)cyclohexyl)acetic acid] cannot be ordered by EC50: at most 250 nM for the first, at most 250 nM for the second.

`COc1ccc([C@H]2CC[C@H](CN(c3cc(-c4cnc(C5CC5)s4)ccn3)C(=O)[C@H]3CC[C@H](OC(=O)N4CC(O)C4)CC3)CC2)nc1C#N` [Compound 7.10, trans-4-(((trans-4-(6-Cyano-5-methoxypyridin-2-yl)cyclohexyl)methyl)(4-(2-cyclopropylthiazol-5-yl)pyridin-2-yl)carbamoyl)cyclohexyl 3-hydroxyazetidine-1-carboxylate] and `COc1ccc([C@H]2CC[C@H](CN(c3cc(-c4coc(C5CC5)n4)ccn3)C(=O)[C@H]3CC[C@H](OC(=O)N4CC(O)C4)CC3)CC2)nc1C` [Compound 7, trans-4-((4-(2-Cyclopropyloxazol-4-yl)pyridine-2-yl)((trans-4-(5-methoxy-6-methylpyridin-2-yl)cyclohexyl)methyl)carbamoyl)cyclohexyl 3-hydroxyazetidine-1-carboxylate] cannot be ordered by EC50: at most 250 nM for the first, at most 250 nM for the second.

`CNC(=O)O[C@H]1CC[C@H](C(=O)N(C[C@H]2CC[C@H](c3ccc(OC)c(C)c3)CC2)c2cccc(-c3cnc(C4CC4)s3)c2)CC1` [Compound 1.01, trans-4-((3-(2-Cyclopropylthiazol-5-yl)phenyl)((trans-4-(4-methoxy-3-methylphenyl)cyclohexyl)methyl)carbamoyl)cyclohexyl methylcarbamate] and `COc1ccc([C@H]2CC[C@H](CN(c3cccc(-c4cnc(C5CC5)s4)c3)C(=O)[C@H]3CC[C@H](C(=O)OC)CC3)CC2)cc1C` [Compound 18.06, trans-Methyl 4-((3-(2-cyclopropylthiazol-5-yl)phenyl)((trans-4-(4-methoxy-3-methylphenyl)cyclohexyl)methyl)carbamoyl) cyclohexanecarboxylate] cannot be ordered by EC50: at most 250 nM for the first, at most 250 nM for the second.

`COc1ccc([C@H]2CC[C@H](CN(c3cccc(-c4cnn(C5CC5)c4)c3)C(=O)[C@H]3CC[C@H](OC(=O)NC[C@H](O)CO)CC3)CC2)cc1C` [Compound 6.12, trans-4-((3-(1-Cyclopropyl-1H-pyrazol-4-yl)phenyl)((trans-4-(4-methoxy-3-methylphenyl)cyclohexyl)methyl)carbamoyl)cyclohexyl ((S)-2,3-dihydroxypropyl)carbamate] and `COc1ccc([C@H]2CC[C@H](CN(c3cccc(-c4cnn(C5CC5)c4)c3)C(=O)[C@H]3CC[C@H](NC(=O)COCCCO)CC3)CC2)cc1C` [Compound 32, trans-N-(3-(1-Cyclopropyl-1H-pyrazol-4-yl)phenyl)-4-(2-(3-hydroxypropoxy)acetamido)-N-((trans-4-(4-methoxy-3-methylphenyl)cyclohexyl)methyl)cyclohexanecarboxamide] cannot be ordered by EC50: at most 250 nM for the first, at most 250 nM for the second.

`COc1ccc([C@H]2CC[C@H](CN(c3cc(-c4coc(C5CC5)n4)ccn3)C(=O)[C@H]3CC[C@H](CNC(=O)CO)CC3)CC2)nc1C` [Compound 26.29, trans-N-(4-(2-Cyclopropyloxazol-4-yl)pyridin-2-yl)-4-((2-hydroxyacetamido)methyl)-N-((trans-4-(5-methoxy-6-methylpyridin-2-yl)cyclohexyl)methyl) cyclohexanecarboxamide] and `COc1ccc([C@H]2CC[C@H](CN(c3cc(-c4coc(C5CC5)n4)ccn3)C(=O)[C@H]3CC[C@H](CN)CC3)CC2)nc1C` [Compound 26.22, trans-4-(Aminomethyl)-N-(4-(2-cyclopropyloxazol-4-yl)pyridin-2-yl)-N-((trans-4-(5-methoxy-6-methylpyridin-2-yl)cyclohexyl)methyl) cyclohexanecarboxamide] cannot be ordered by EC50: 250 to 1000 nM for the first, at least 1000 nM for the second.

`COc1ccc([C@H]2CC[C@H](CN(c3cc(-c4coc(C5CC5)n4)ccn3)C(=O)[C@H]3CC[C@H](OC(=O)N4CC(CO)C4)CC3)CC2)nc1C` [Compound 7.80, trans-4-(4-(2-Cyclopropyloxazol-4-yl)pyridine-2-yl)((trans-4-(5-methoxy-6-methylpyridin-2-yl)cyclohexyl)methyl) carbamoyl)cyclohexyl 3-(hydroxymethyl)azetidine-1-carboxylate] and `COc1ccc([C@H]2CC[C@H](CN(c3cc(-c4coc(C5CC5)n4)ccn3)C(=O)[C@H]3CC[C@H](OC(=O)NC(C)C(C)O)CC3)CC2)nc1C` (stereo partly drawn) [Compound 6.73, trans-4-((4-(2-Cyclopropyloxazol-4-yl)pyridin-2-yl)((trans-4-(5-methoxy-6-methylpyridin-2-yl)cyclohexyl)methyl)carbamoyl)cyclohexyl (3-hydroxybutan-2-yl)carbamate] cannot be ordered by EC50: at most 250 nM for the first, at most 250 nM for the second.

`CNC(=O)O[C@H]1CC[C@H](C(=O)N(C[C@H]2CC[C@H](c3ccc(OC)c(C#N)n3)CC2)c2cc(-c3coc(C4CC4)n3)ccn2)CC1` [Compound 5.44, trans-4-(((trans-4-(6-Cyano-5-methoxypyridin-2-yl)cyclohexyl)methyl)(4-(2-cyclopropyloxazol-4-yl)pyridine-2-yl)carbamoyl)cyclohexyl methylcarbamate] and `CNC(=O)O[C@H]1CC[C@H](C(=O)N(C[C@H]2CC[C@H](c3ccc(OC)c(C#N)c3)CC2)c2cccc(-c3coc(C4CC4)n3)c2)CC1` [Compound 5.35, trans-4-(((trans-4-(3-Cyano-4-methoxyphenyl)cyclohexyl)methyl)(3-(2-cyclopropyloxazol-4-yl)phenyl)carbamoyl)cyclohexyl methylcarbamate] cannot be ordered by EC50: at most 250 nM for the first, at most 250 nM for the second.

`COc1ncc([C@H]2CC[C@H](CN(c3cc(-c4coc(C5CC5)n4)ccn3)C(=O)[C@H]3CC[C@H](OC(=O)N4CC(OC)C4)CC3)CC2)cc1C` [Compound 7.93, trans-4-((4-(2-Cyclopropyloxazol-4-yl)pyridine-2-yl)((trans-4-(6-methoxy-5-methylpyridin-3-yl)cyclohexyl)methyl)carbamoyl)cyclohexyl 3-methoxyazetidine-1-carboxylate] and `COc1ccc([C@H]2CC[C@H](CN(c3cc(-c4coc(C(C)C)n4)ccn3)C(=O)[C@H]3CC[C@H](OC(=O)N4CC(N(C)C)C4)CC3)CC2)nc1C` [Compound 7.84, trans-4-((4-(2-Isopropyloxazol-4-yl)pyridine-2-yl)((trans-4-(5-methoxy-6-methylpyridin-2-yl)cyclohexyl)methyl)carbamoyl)cyclohexyl 3-(dimethylamino)azetidine-1-carboxylate] cannot be ordered by EC50: at most 250 nM for the first, at most 250 nM for the second.

`COc1ccc([C@H]2CC[C@H](CN(c3cc(-c4coc(C(C)C)n4)ccn3)C(=O)[C@H]3CC[C@H](OC(=O)NCC(C)(C)O)CC3)CC2)nc1C` [Compound 6.91, trans-4-((4-(2-Isopropyloxazol-4-yl)pyridin-2-yl)((trans-4-(5-methoxy-6-methylpyridin-2-yl)cyclohexyl)methyl)carbamoyl)cyclohexyl (2-hydroxy-2-methylpropyl)carbamate] and `COc1ccc([C@H]2CC[C@H](CN(c3cc(-c4coc(C(C)C)n4)ccn3)C(=O)[C@H]3CC[C@H](OC(=O)N4CCN(C)CC4)CC3)CC2)nc1C` [Compound 6.77, trans-4-((4-(2-Isopropyloxazol-4-yl)pyridine-2-yl)((trans-4-(5-methoxy-6-methylpyridin-2-yl)cyclohexyl)methyl)carbamoyl)cyclohexyl 4-methylpiperazine-1-carboxylate] cannot be ordered by EC50: at most 250 nM for the first, at most 250 nM for the second.

`COc1ccc([C@H]2CC[C@H](CN(c3cccc(-c4cnn(C5CC5)c4)c3)C(=O)[C@H]3CC[C@H](OC(=O)N4CC(CS(C)(=O)=O)C4)CC3)CC2)cc1C` [Compound 9, trans-4-((3-(1-cyclopropyl-1H-pyrazol-4-yl)phenyl)((trans-4-(4-methoxy-3-methylphenyl)cyclohexyl)methyl)carbamoyl)cyclohexyl 3-((methylsulfonyl)methyl)azetidine-1-carboxylate] and `CNC(=O)O[C@H]1CC[C@H](C(=O)N(C[C@H]2CC[C@H](c3ccc(OC)c(C)c3)CC2)c2cccc(C#Cc3nccs3)c2)CC1` [Compound 2.04, trans-4-(((trans-4-(4-Methoxy-3-methylphenyl)cyclohexyl)methyl)(3-(thiazol-2-ylethynyl)phenyl)carbamoyl)cyclohexyl methylcarbamate] cannot be ordered by EC50: at most 250 nM for the first, at most 250 nM for the second.
